Data set [1] relates to human prostate cancer cells (PC3). Nature of the data set: MTT cytotoxic activity assay, PC3 cells, 72 h. In kind it is cell-based. An excerpt:
(§1) Cancer treatment often damages healthy cells and tissues. Every treatment has important and diverse side effects; these depend mainly on the type and extent of treatment, are not the same for everyone, and may even vary from one treatment to another in the same person. While most cancer patients receiving chemotherapy lose hair during the treatment process, other side effects vary depending on the type of drug. Therefore, the discovery of new drugs with side effects lower than those of the chemotherapeutic agents used in treatment has become an important focus of cancer research. In the present study, the cytotoxic activities of new compounds (1–18) and cisplatin were tested in prostate and colon cancer cell lines and healthy embryonic kidney cell line for 72 h.
(§2) The PC3 and DLD-1 cell lines were purchased from the American Type Culture Collection. The PC3, DLD-1, and HEK-293T cells were seeded in 96-well plates at a density of 5 × 10^3 cells/well for cytotoxic activity studies.[36]−[38] Cells were exposed to compounds at concentrations of 300, 150, 75, and 37.5 μM after 24 h. The 50 μL (5 mg/mL) amount of MTT stock solution was added to wells after 72 h and incubated for a further 2 h. The absorbance values were measured by using an Epoch 2 ELISA plate reader at 590 nm.

The subject of data set [2] is human colon cancer cells (DLD-1). Nature of the data set: MTT cytotoxic activity assay, DLD-1 cells, 72 h. In kind it is cell-based. To be noted: DLD-1 cell line.
Description: as §1, §2
(Tetrazolium assays rely on reduction of a dye to a coloured formazan, in cell work by metabolically active cells.)

The test system of data set [3] is human embryonic kidney cells (HEK-293T). The experiment in a line: MTT cytotoxic activity assay, HEK-293T healthy cells, 72 h. In kind it is cell-based. To be noted: HEK-293T healthy cell line.
Description: as §1
To determine whether all of the prepared substances had selectivity for healthy cells, the compounds were tested against HEK-293T cells at the same concentrations as those applied to cancer cells. […] Changes in the cell viability ratio depending on concentrations of the tested compounds (1–18) and cisplatin are given below (Figure 3).
as §2

[4] abbreviates: Homo sapiens, PC-3, PC3 cell line.

Molecules are shown by their SMILES. A value given as a limit tells only on which side of the number the result lay.

As to `O=Cc1ccccc1OS(=O)(=O)c1ccc(C(F)(F)F)cc1` [Compound 1], the melting point (usually the temperature, or range, at which the solid turns liquid) lay in the range of 83 to 84 °C. Moreover, the IC50 (in general, the concentration at which inhibition is half-maximal) in data set [1] (setting [4]) is 14.3 ± 1.87 µM. This molecule also returned an IC50 in data set [2] (Homo sapiens) of 22.5 ± 2.6 µM. In addition, in data set [3], inhibition was half-maximal at 19.5 ± 1.57 µM (IC50).

Turning to `O=Cc1cccc(OS(=O)(=O)c2ccc(C(F)(F)F)cc2)c1` [Compound 2], the melting point is 79 to 80 °C. In data set [1] (setting [4]), this molecule came in with an IC50 of 24.5 ± 2.09 µM. The same molecule gave an IC50 in data set [2] (Homo sapiens) of 41.2 ± 3.94 µM. Further, 60 ± 4.81 µM corresponded to half-maximal inhibition in data set [3] (IC50).

Molecule `O=Cc1ccc(OS(=O)(=O)c2ccc(C(F)(F)F)cc2)cc1` [Compound 3] returned a melting point of 110 to 111 °C. The concentration for half-maximal inhibition (IC50) in data set [1] (setting [4]) stood at 76.6 ± 3.55 µM. This molecule also had an IC50 in data set [2] (Homo sapiens) of 115 ± 5.78 µM. In data set [3], this molecule displayed an IC50 of 89.26 ± 0.17 µM.

Consider `COc1cccc(C=O)c1OS(=O)(=O)c1ccc(C(F)(F)F)cc1` [Compound 4], for which the IC50 amounted to 10.3 ± 0.8 µM in data set [1] (setting [4]), 13.5 ± 1.64 µM in data set [2] (Homo sapiens) and 35.3 ± 1.15 µM in data set [3].

As for `COc1ccc(C=O)c(OS(=O)(=O)c2ccc(C(F)(F)F)cc2)c1` [Compound 5], the IC50 in data set [1] (setting [4]) worked out at 11.2 ± 0.94 µM; in data set [2] (Homo sapiens), 19.3 ± 2.71 µM; in data set [3], 38.6 ± 2.81 µM.

As for `COc1ccc(C=O)cc1OS(=O)(=O)c1ccc(C(F)(F)F)cc1` [Compound 6], the IC50 in data set [1] (setting [4]) turned out to be 16 ± 1.71 µM; in data set [2] (Homo sapiens), 17.8 ± 0.53 µM; in data set [3] it was 91 ± 2.26 µM.

The molecule `COc1cc(C=O)ccc1OS(=O)(=O)c1ccc(C(F)(F)F)cc1` [Compound 7] gave a melting point of 112 to 113 °C. For the same molecule, the IC50 in data set [1] (setting [4]) came to 71.6 ± 3.46 µM. In data set [2] (Homo sapiens), this molecule returned an IC50 of 74 ± 4.34 µM. Besides, the IC50 in data set [3] came out at 110 ± 5.97 µM.

Consider `CCN(CC)c1ccc(C=O)c(OS(=O)(=O)c2ccc(C(F)(F)F)cc2)c1` [Compound 8], for which the melting point is 114 to 116 °C. The same molecule gave an IC50 in data set [1] (setting [4]) of 28.8 ± 1.85 µM. Further, half-maximal inhibition in data set [2] (Homo sapiens) (IC50) was put at 24.7 ± 1.9 µM. For the same molecule, the midpoint of inhibition in data set [3], the IC50, lay at 40.8 ± 5.68 µM.

In turn, `O=Cc1c(OS(=O)(=O)c2ccc(C(F)(F)F)cc2)ccc2ccccc12` [Compound 9] gave a melting point of 129 to 131 °C. The molecule also gave an IC50 in data set [1] (setting [4]) of 14.8 ± 1.03 µM. In data set [2] (Homo sapiens), this molecule showed an IC50 of 17.6 ± 0.62 µM. The same molecule gave an IC50 in data set [3] of 34.7 ± 2.21 µM.

For the molecule `O=C(NN=Cc1ccccc1OS(=O)(=O)c1ccc(C(F)(F)F)cc1)c1ccncc1` [Compound 10], the IC50 amounted to 139 ± 5.82 µM in data set [1] (setting [4]), 17.9 ± 0.51 µM in data set [2] (Homo sapiens) and 52.2 ± 3.52 µM in data set [3].

Molecule `O=C(NN=Cc1cccc(OS(=O)(=O)c2ccc(C(F)(F)F)cc2)c1)c1ccncc1` [Compound 11] gave a melting point of 189 to 190 °C. In data set [1] (setting [4]), this molecule had an IC50 of 80.1 ± 4.59 µM. Moreover, half-maximal inhibition in data set [2] (Homo sapiens) (IC50) required 144 ± 4.18 µM. Besides, the IC50 in data set [3] stood at 245 ± 5.79 µM.

For the molecule `O=C(N/N=C/c1ccc(OS(=O)(=O)c2ccc(C(F)(F)F)cc2)cc1)c1ccncc1` [Compound 12], the melting point is 208 to 209 °C. In data set [1] (setting [4]), this molecule came in with an IC50 above 300 µM. The IC50 in data set [2] (Homo sapiens) is above 300 µM. The molecule further came in with an IC50 in data set [3] above 300 µM.

`COc1cccc(C=NNC(=O)c2ccncc2)c1OS(=O)(=O)c1ccc(C(F)(F)F)cc1` [Compound 13] gave a melting point of 198 to 199 °C. Besides, in data set [1] (setting [4]), the IC50 was 214 ± 6.48 µM. For the same molecule, in data set [2] (Homo sapiens), the IC50 was 78.8 ± 3.15 µM. For the same molecule, the IC50 in data set [3] was above 300 µM.

The molecule `COc1ccc(C=NNC(=O)c2ccncc2)c(OS(=O)(=O)c2ccc(C(F)(F)F)cc2)c1` [Compound 14] gave a melting point of 180 to 181 °C. This molecule displayed an IC50 in data set [1] (setting [4]) of 16.5 ± 1.54 µM. This molecule also had an IC50 in data set [2] (Homo sapiens) of 28.4 ± 2.81 µM. In addition, the concentration for half-maximal inhibition (IC50) in data set [3] was 26.6 ± 2.62 µM.

In the case of `COc1ccc(C=NNC(=O)c2ccncc2)cc1OS(=O)(=O)c1ccc(C(F)(F)F)cc1` [Compound 15], the IC50 in data set [1] (setting [4]) worked out at 97.4 ± 4.85 µM; in data set [2] (Homo sapiens), 63.8 ± 5.32 µM; in data set [3], 166 ± 6.71 µM.

`COc1cc(C=NNC(=O)c2ccncc2)ccc1OS(=O)(=O)c1ccc(C(F)(F)F)cc1` [Compound 16]: the melting point lay within 192 to 193 °C. In data set [1] (setting [4]), this molecule displayed an IC50 of 121 ± 5.71 µM. In data set [2] (Homo sapiens), the IC50 was 72.8 ± 3.13 µM. In data set [3], half-maximal inhibition (IC50) was put at 183 ± 2.72 µM.

On to `CCN(CC)c1ccc(C=NNC(=O)c2ccncc2)c(OS(=O)(=O)c2ccc(C(F)(F)F)cc2)c1` [Compound 17], for which the melting point was 141 to 142 °C. The same molecule showed an IC50 in data set [1] (setting [4]) of 57.6 ± 1.83 µM. This molecule displayed an IC50 in data set [2] (Homo sapiens) of 110 ± 5.09 µM. The molecule also registered an IC50 in data set [3] of 132 ± 5.46 µM.

On to `O=C(NN=Cc1c(OS(=O)(=O)c2ccc(C(F)(F)F)cc2)ccc2ccccc12)c1ccncc1` [Compound 18], for which the IC50 in data set [1] (setting [4]) worked out at 17.05 ± 0.09 µM; in data set [2] (Homo sapiens), 37.4 ± 4.63 µM; in data set [3] it was 15.75 ± 0.11 µM.

For `N.N.[Cl][Pt][Cl]` [cisplatin, reference compound], the IC50 came to 8.8 ± 0.51 µM in data set [1] (PC3 cell line) and 26.7 ± 2.78 µM in data set [2].

The values above are taken from PMC11025081, “Design, Synthesis, and In Silico and In Vitro Cytotoxic Activities of Novel Isoniazid–Hydrazone Analogues Linked to Fluorinated Sulfonate Esters” (ACS Omega, 2024).
